{"source": "the supplement of paper PMC11061612", "assay_in_all_cases": "combination Emax (second highest fraction inhibited in the dose matrix, 72 h); higher = more inhibition; extreme values may be limits of the assay", "key": {"[1]": {"system": "RL95-2 (Endometrial Carcinoma)", "in_short": "(§1)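 Cell lines in DMEM/F12 or RPMI with 10% FBS were plated in 1536-well plates, held 24 hours at 37°C, 5% CO2, then given two-drug dose matrices for 72 hours (DMSO typically 0.2%). Viability was read by CellTiter-Glo 2.0 luminescence and scaled as inhibition from 0 (vehicle wells) to 1 (blank wells). Combination Emax is the second-highest inhibition in the matrix; Bliss excess is observed combination effect minus expected EA + EB − EA·EB, EA and EB being single-agent effects.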"}, "[2]": {"system": "OVTOKO (Ovarian Carcinoma)", "in_short": "as §1"}, "HuO-3N1 (Osteosarcoma)": {"system": "HuO-3N1 (Osteosarcoma)", "in_short": "as §1"}, "ES-2 (Ovarian Carcinoma)": {"system": "ES-2 (Ovarian Carcinoma)", "in_short": "as §1"}, "[3]": {"system": "PANC-02-03 (Pancreatic Carcinoma)", "in_short": "as §1"}, "[4]": {"system": "SK-MM-2 (Plasma Cell Myeloma)", "in_short": "as §1"}, "KYM-1 (Rhabdomyosarcoma)": {"system": "KYM-1 (Rhabdomyosarcoma)", "in_short": "as §1"}, "[5]": {"system": "NKM-1 (Acute Myeloid Leukemia)", "in_short": "as §1"}, "[6]": {"system": "NCI-H810 (Non-Small Cell Lung Carcinoma)", "in_short": "as §1"}, "[7]": {"system": "JHH-1 (Hepatocellular Carcinoma)", "in_short": "as §1"}, "[8]": {"system": "SW684 (Other Solid Carcinomas)", "in_short": "as §1"}, "[9]": {"system": "NCI-H1623 (Lung Adenocarcinoma)", "in_short": "as §1"}, "[10]": {"system": "FLO-1 (Esophageal Adenocarcinoma)", "in_short": "as §1"}, "[11]": {"system": "SNU-175 (Colorectal Carcinoma)", "in_short": "as §1"}, "[12]": {"system": "HTC-C3 (Thyroid Gland Carcinoma)", "in_short": "as §1"}, "[13]": {"system": "NCI-H196 (Small Cell Lung Carcinoma)", "in_short": "as §1"}, "[14]": {"system": "RPMI-8866 (Chronic Myelogenous Leukemia)", "in_short": "as §1"}, "[15]": {"system": "OCI-AML5 (Acute Myeloid Leukemia)", "in_short": "as §1"}, "[16]": {"system": "LAMA-84 (Chronic Myelogenous Leukemia)", "in_short": "as §1"}, "[17]": {"system": "PC-14 (Lung Adenocarcinoma)", "in_short": "as §1"}}}
{"smiles": "CC(=O)c1c(C)c2cnc(Nc3ccc(N4CCNCC4)cn3)nc2n(C2CCCC2)c1=O", "note": "[Palbociclib] + Cn1cnc2c(F)c(Nc3ccc(Br)cc3Cl)c(C(=O)NOCCO)cc21 [Selumetinib] (first compound max 10 µM, 7x7, partner max 10 µM)", "values": [{"measurement": "combination Emax", "setting": "[1]", "value": 0.561}, {"measurement": "combination Emax", "setting": "[2]", "value": 0.259}, {"measurement": "combination Emax", "setting": "HuO-3N1 (Osteosarcoma)", "value": 0.154}, {"measurement": "combination Emax", "setting": "ES-2 (Ovarian Carcinoma)", "value": 0.569}, {"measurement": "combination Emax", "setting": "[3]", "value": 0.475}, {"measurement": "combination Emax", "setting": "[4]", "value": 0.138}, {"measurement": "combination Emax", "setting": "KYM-1 (Rhabdomyosarcoma)", "value": 0.93}, {"measurement": "combination Emax", "setting": "[5]", "value": 0.944}, {"measurement": "combination Emax", "setting": "[6]", "value": 0.0848}, {"measurement": "combination Emax", "setting": "[7]", "value": 0.201}, {"measurement": "combination Emax", "setting": "[8]", "value": 0.292}, {"measurement": "combination Emax", "setting": "[9]", "value": 0.52}, {"measurement": "combination Emax", "setting": "[10]", "value": 0.531}, {"measurement": "combination Emax", "setting": "[11]", "value": 0.549}, {"measurement": "combination Emax", "setting": "[12]", "value": 0.728}, {"measurement": "combination Emax", "setting": "[13]", "value": 0.0806}, {"measurement": "combination Emax", "setting": "[14]", "value": 0.806}, {"measurement": "combination Emax", "setting": "[15]", "value": 0.833}, {"measurement": "combination Emax", "setting": "[16]", "value": 0.945}, {"measurement": "combination Emax", "setting": "[17]", "value": 0.434}]}
{"smiles": "CN(CCO)CC[C@H](CSc1ccccc1)Nc1ccc(S(=O)(=O)NC(=O)c2ccc(N3CCC([C@@H](O)c4ccccc4-c4ccc(Cl)cc4)CC3)cc2)cc1S(=O)(=O)C(F)(F)F", "note": "[AZD4320] + Cn1cnc2c(F)c(Nc3ccc(Br)cc3Cl)c(C(=O)NOCCO)cc21 [Selumetinib] (first compound max 1 µM, 7x7, partner max 3 µM)", "values": [{"measurement": "combination Emax", "setting": "[1]", "value": 0.667}, {"measurement": "combination Emax", "setting": "[2]", "value": 0.318}, {"measurement": "combination Emax", "setting": "HuO-3N1 (Osteosarcoma)", "value": 0.221}, {"measurement": "combination Emax", "setting": "ES-2 (Ovarian Carcinoma)", "value": 0.466}, {"measurement": "combination Emax", "setting": "[3]", "value": 0.55}, {"measurement": "combination Emax", "setting": "[4]", "value": 1}, {"measurement": "combination Emax", "setting": "KYM-1 (Rhabdomyosarcoma)", "value": 0.203}, {"measurement": "combination Emax", "setting": "[5]", "value": 1}, {"measurement": "combination Emax", "setting": "[6]", "value": 0.615}, {"measurement": "combination Emax", "setting": "[7]", "value": 0.8}, {"measurement": "combination Emax", "setting": "[8]", "value": 0.609}, {"measurement": "combination Emax", "setting": "[9]", "value": 0.859}, {"measurement": "combination Emax", "setting": "[10]", "value": 0.453}, {"measurement": "combination Emax", "setting": "[11]", "value": 0.865}, {"measurement": "combination Emax", "setting": "[12]", "value": 0.707}, {"measurement": "combination Emax", "setting": "[13]", "value": 0.275}, {"measurement": "combination Emax", "setting": "[14]", "value": 0.854}, {"measurement": "combination Emax", "setting": "[15]", "value": 1}, {"measurement": "combination Emax", "setting": "[16]", "value": 0.99}, {"measurement": "combination Emax", "setting": "[17]", "value": 0.333}]}
{"smiles": "CCc1c2c(nc3ccc(O)cc13)-c1cc3c(c(=O)n1C2)COC(=O)[C@]3(O)CC", "note": "[SN-38] + CN(C)CCCOc1ccc(-c2ccc3ncc4c(c3c2)n(C2CCOCC2)c(=O)n4C)cn1 [AZD0156] (first compound max 0.3 µM, 7x7, partner max 1 µM)", "values": [{"measurement": "combination Emax", "setting": "[1]", "value": 0.424}, {"measurement": "combination Emax", "setting": "[2]", "value": 0.194}, {"measurement": "combination Emax", "setting": "HuO-3N1 (Osteosarcoma)", "value": 0.567}, {"measurement": "combination Emax", "setting": "ES-2 (Ovarian Carcinoma)", "value": 0.912}, {"measurement": "combination Emax", "setting": "[3]", "value": 0.693}, {"measurement": "combination Emax", "setting": "[4]", "value": 0.883}, {"measurement": "combination Emax", "setting": "KYM-1 (Rhabdomyosarcoma)", "value": 0.952}, {"measurement": "combination Emax", "setting": "[5]", "value": 0.973}, {"measurement": "combination Emax", "setting": "[6]", "value": 0.51}, {"measurement": "combination Emax", "setting": "[7]", "value": 0.316}, {"measurement": "combination Emax", "setting": "[8]", "value": 0.462}, {"measurement": "combination Emax", "setting": "[9]", "value": 0.822}, {"measurement": "combination Emax", "setting": "[10]", "value": 0.664}, {"measurement": "combination Emax", "setting": "[11]", "value": 0.478}, {"measurement": "combination Emax", "setting": "[12]", "value": 0.764}, {"measurement": "combination Emax", "setting": "[13]", "value": 0.0732}, {"measurement": "combination Emax", "setting": "[14]", "value": 0.982}, {"measurement": "combination Emax", "setting": "[15]", "value": 0.998}, {"measurement": "combination Emax", "setting": "[16]", "value": 0.94}, {"measurement": "combination Emax", "setting": "[17]", "value": 0.592}]}
{"smiles": "COc1cccc(OCCCN)c1-c1cc(Nc2cnc(C#N)cn2)n[nH]1", "note": "[Prexasertib] + CN(C)CCCOc1ccc(-c2ccc3ncc4c(c3c2)n(C2CCOCC2)c(=O)n4C)cn1 [AZD0156] (first compound max 1 µM, 7x7, partner max 1 µM)", "values": [{"measurement": "combination Emax", "setting": "[1]", "value": 0.888}, {"measurement": "combination Emax", "setting": "[2]", "value": 0.647}, {"measurement": "combination Emax", "setting": "HuO-3N1 (Osteosarcoma)", "value": 0.48}, {"measurement": "combination Emax", "setting": "ES-2 (Ovarian Carcinoma)", "value": 0.863}, {"measurement": "combination Emax", "setting": "[3]", "value": 0.609}, {"measurement": "combination Emax", "setting": "[4]", "value": 0.652}, {"measurement": "combination Emax", "setting": "KYM-1 (Rhabdomyosarcoma)", "value": 0.952}, {"measurement": "combination Emax", "setting": "[5]", "value": 0.956}, {"measurement": "combination Emax", "setting": "[6]", "value": 0.877}, {"measurement": "combination Emax", "setting": "[7]", "value": 0.677}, {"measurement": "combination Emax", "setting": "[8]", "value": 0.42}, {"measurement": "combination Emax", "setting": "[9]", "value": 0.804}, {"measurement": "combination Emax", "setting": "[10]", "value": 0.724}, {"measurement": "combination Emax", "setting": "[11]", "value": 0.632}, {"measurement": "combination Emax", "setting": "[12]", "value": 0.768}, {"measurement": "combination Emax", "setting": "[13]", "value": 0.606}, {"measurement": "combination Emax", "setting": "[14]", "value": 1}, {"measurement": "combination Emax", "setting": "[15]", "value": 1}, {"measurement": "combination Emax", "setting": "[16]", "value": 0.988}, {"measurement": "combination Emax", "setting": "[17]", "value": 0.85}]}
{"smiles": "NC1(C(=O)N[C@@H](CCO)c2ccc(Cl)cc2)CCN(c2ncnc3[nH]ccc23)CC1", "note": "[Capivasertib] + CC(=O)c1c(C)c2cnc(Nc3ccc(N4CCNCC4)cn3)nc2n(C2CCCC2)c1=O [Palbociclib] (first compound max 10 µM, 7x7, partner max 10 µM)", "values": [{"measurement": "combination Emax", "setting": "[1]", "value": 0.904}, {"measurement": "combination Emax", "setting": "[2]", "value": 0.572}, {"measurement": "combination Emax", "setting": "HuO-3N1 (Osteosarcoma)", "value": 0.432}, {"measurement": "combination Emax", "setting": "ES-2 (Ovarian Carcinoma)", "value": 0.72}, {"measurement": "combination Emax", "setting": "[3]", "value": 0.202}, {"measurement": "combination Emax", "setting": "[4]", "value": 0.409}, {"measurement": "combination Emax", "setting": "KYM-1 (Rhabdomyosarcoma)", "value": 0.85}, {"measurement": "combination Emax", "setting": "[5]", "value": 0.796}, {"measurement": "combination Emax", "setting": "[6]", "value": 0.141}, {"measurement": "combination Emax", "setting": "[7]", "value": 0.143}, {"measurement": "combination Emax", "setting": "[8]", "value": 0.54}, {"measurement": "combination Emax", "setting": "[9]", "value": 0.506}, {"measurement": "combination Emax", "setting": "[10]", "value": 0.551}, {"measurement": "combination Emax", "setting": "[11]", "value": 0.634}, {"measurement": "combination Emax", "setting": "[12]", "value": 0.474}, {"measurement": "combination Emax", "setting": "[13]", "value": 0.258}, {"measurement": "combination Emax", "setting": "[14]", "value": 0.75}, {"measurement": "combination Emax", "setting": "[15]", "value": 0.479}, {"measurement": "combination Emax", "setting": "[16]", "value": 0.558}, {"measurement": "combination Emax", "setting": "[17]", "value": 0.582}]}
